# Results taken from ChEMBL document CHEMBL1944550, “In vitro and in silico studies on substrate recognition and acceptance of human PKMYT1, a Cdk1 inhibitory kinase” (Bioorg Med Chem Lett, 2012).
# Active and inactive are the calls of the source. No cut-off for these calls is given here. Residues, ends and D or L forms follow the SMILES beside them.
# How the values were obtained:
# [1] = target: T1, Membrane-associated tyrosine- and threonine-specific cdc2-inhibitory kinase (Homo sapiens) (UniProt Q99640); assay: Activity at full length human Myt1 expressed in human HEK293 cells assessed as Cdk1 phosphorylation at Thr14 at 10 uM after 30 mins by fluorescence polarization immunoassay
# T1 sequence (whole entry): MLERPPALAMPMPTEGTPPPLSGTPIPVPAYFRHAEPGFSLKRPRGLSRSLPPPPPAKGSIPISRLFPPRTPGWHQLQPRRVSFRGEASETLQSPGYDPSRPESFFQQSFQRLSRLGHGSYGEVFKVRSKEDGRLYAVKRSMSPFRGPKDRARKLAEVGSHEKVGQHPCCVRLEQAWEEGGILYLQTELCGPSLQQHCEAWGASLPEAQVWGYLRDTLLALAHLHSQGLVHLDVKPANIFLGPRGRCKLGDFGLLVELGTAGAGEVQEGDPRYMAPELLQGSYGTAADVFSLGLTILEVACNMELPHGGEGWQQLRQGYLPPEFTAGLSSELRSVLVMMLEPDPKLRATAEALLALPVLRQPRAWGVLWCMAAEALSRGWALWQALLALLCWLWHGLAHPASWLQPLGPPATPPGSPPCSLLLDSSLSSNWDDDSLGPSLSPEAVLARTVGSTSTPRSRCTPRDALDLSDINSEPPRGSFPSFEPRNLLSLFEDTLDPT
# [2] = target: T1, Membrane-associated tyrosine- and threonine-specific cdc2-inhibitory kinase (Homo sapiens); assay: Activity at human Myt1 (75 to 362) expressed in Escherichia coli BL21 (DE3) cells assessed as Cdk1 phosphorylation at Try15 at 10 uM after 30 mins by fluorescence polarization immunoassay
# [3] = target: T2, Membrane-associated tyrosine- and threonine-specific cdc2-inhibitory kinase (Homo sapiens, UniProt Q99640); assay: Activity at full length human Myt1 expressed in human HEK293 cells at 10 uM after 30 mins by fluorescence polarization immunoassay
# T2 sequence (Q99640 whole entry): T1 sequence (whole entry)
# [4] = target: T1, Membrane-associated tyrosine- and threonine-specific cdc2-inhibitory kinase (Homo sapiens); assay: Activity at full length human Myt1 expressed in human HEK293 cells assessed as Cdk1 phosphorylation at Try15 at 10 uM after 30 mins by fluorescence polarization immunoassay
# [5] = target: T1, Membrane-associated tyrosine- and threonine-specific cdc2-inhibitory kinase (Homo sapiens); assay: Activity at human Myt1 (75 to 362) expressed in Escherichia coli BL21 (DE3) cells assessed as Cdk1 phosphorylation at Thr14 at 10 uM after 30 mins by fluorescence polarization immunoassay
# [6] = target: T2, Membrane-associated tyrosine- and threonine-specific cdc2-inhibitory kinase; assay: Competitive inhibition of human Myt1 by TR-FRET assay
Compound,Activity [1],Activity [2],Activity [4],Activity [5],IC50 [6] [µM],EC50 [3] [µM]
CC[C@H](C)[C@H](NC(=O)[C@H](CCCCN)NC(=O)[C@@H](N)CCC(N)=O)C(=O)NCC(=O)N[C@@H](CCC(=O)O)C(=O)NCC(=O)N[C@H](C(=O)N[C@@H](Cc1ccc(OP(=O)(O)O)cc1)C(=O)NCC(=O)N[C@H](C(=O)N[C@H](C(=O)N[C@@H](Cc1ccc(O)cc1)C(=O)N[C@@H](CCCCN)C(=O)N[C@@H](CS)C(=O)O)C(C)C)C(C)C)[C@@H](C)O (HELM PEPTIDE1{Q.K.I.G.E.G.T.[O=C([C@H](Cc1ccc(OP(=O)(O)O)cc1)N[*:1])[*:2]].G.V.V.Y.K.C}$$$$V2.0),inactive,inactive,inactive,inactive,,0.018
CC[C@H](C)[C@H](NC(=O)[C@H](CCCCN)NC(=O)[C@@H](N)CCC(N)=O)C(=O)NCC(=O)N[C@@H](CCC(=O)O)C(=O)NCC(=O)N[C@H](C(=O)N[C@@H](Cc1ccc(OP(=O)(O)O)cc1)C(=O)NCC(=O)N[C@H](C(=O)N[C@H](C(=O)N[C@@H](Cc1ccc(O)cc1)C(=O)N[C@@H](CCCCN)C(=O)N[C@@H](CS)C(=O)O)C(C)C)C(C)C)[C@@H](C)OP(=O)(O)O (HELM PEPTIDE1{Q.K.I.G.E.G.[C[C@@H](OP(=O)(O)O)[C@H](N[*:1])C(=O)[*:2]].[O=C([C@H](Cc1ccc(OP(=O)(O)O)cc1)N[*:1])[*:2]].G.V.V.Y.K.C}$$$$V2.0),inactive,inactive,inactive,inactive,,
CCN(CC)CCOc1ccc(Nc2ncc3cc(-c4c(Cl)cccc4Cl)c(=O)n(C)c3n2)cc1 [PD-0166285],,,,,0.007,
H-QKIGEGTYGVVYKC-OH,inactive,inactive,inactive,inactive,,

# Further lines, with some results ahead:
Activity [1],Activity [2],Activity [4],Activity [5],IC50 [6] [µM],Compound,EC50 [3] [µM]
inactive,inactive,inactive,inactive,,CC[C@H](C)[C@H](NC(=O)[C@H](CCCCN)NC(=O)[C@@H](N)CCC(N)=O)C(=O)NCC(=O)N[C@@H](CCC(=O)O)C(=O)NCC(=O)N[C@H](C(=O)N[C@@H](Cc1ccc(O)cc1)C(=O)NCC(=O)N[C@H](C(=O)N[C@H](C(=O)N[C@@H](Cc1ccc(O)cc1)C(=O)N[C@@H](CCCCN)C(=O)N[C@@H](CS)C(=O)O)C(C)C)C(C)C)[C@@H](C)OP(=O)(O)O (HELM PEPTIDE1{Q.K.I.G.E.G.[C[C@@H](OP(=O)(O)O)[C@H](N[*:1])C(=O)[*:2]].Y.G.V.V.Y.K.C}$$$$V2.0),
inactive,inactive,inactive,inactive,,H-EKIGEGTYGVVYKC-OH,
